Patent US10894797B2, “Fused tricyclic ring derivatives as SRC homology-2 phosphatase inhibitors” (Nikang Therapuetics, Inc., priority 2018, dated 2021)

biological target: SHP2 (Homo sapiens (Human), UniProt Q06124); test: SHP2 allosteric inhibition assay (DiFMUP substrate, bisphos-IRS1 peptide activation); assay type: biochemical; conditions: 0.33 nM SHP2, 0.5 μM bisphos-IRS1 peptide, 100 uM DiFMUP, room temperature
Procedure: At the basal state, SHP2 is auto-inhibited and access of substrates to the catalytic site is blocked by the […] interactions between the SH2 domains and the PTP domain. When bis-tyrosyl-phosphorylated peptides bind to SH2 domain of SHP2, the PTP domain becomes available for substrate recognition and reaction catalysis and SHP2 is allosterically activated. SHP2 catalytic activity can be measured using a fluorogenic artificial substrate DiFMUP.
The phosphatase reactions were carried out at room temperature in 384-well black polystyrene plates (Greiner Bio-One, Cat #784076) using assay buffers containing 60 mM HEPES, pH 7.2, 75 mM NaCl, 75 mM KCl, 1 mM EDTA, 0.05% P-20, and 5 mM DTT.
0.33 nM of SHP2 was co-incubated with of 0.5 μM of bisphos-IRS 1 peptide (sequence: H2N-LN(pY)IDLDLV(dPEG8)LST(pY)ASINFQK-amide) and various concentrations of compounds for 30-60 min at room temperature. Then the reaction was initiated by addition of the surrogate substrate DiFMUP (Invitrogen, Cat #D6567, 100 uM final).
The real-time conversion of DiFMUP to DiFMU (6,8-difluoro-7-hydroxyl-4-methyl-coumarin) was measured every 5 min for 30 min using a microplate reader (CLARIOstar, BMG Labtech) with excitation and emission wavelengths of 340 nm and 450 nm, respectively. Initial reaction rates were determined by linear fitting of the data and the inhibitor dose response curves were analyzed using normalized IC50 regression curve fitting with control-based normalization.

Row | IC50 [nM] | Compound
1 | 5.9 | COCOC[C@H]1C[C@H]2COc3c(Sc4cnc(N5CCC6(CC5)CO[C@@H](C)[C@H]6N)cn4)ccnc3N2C1 [Compound 42, (3S,4S)-8-(5-(((6aS,8S)-8-((methoxymethoxy)methyl)-6a,7,8,9-tetrahydro-6H-pyrido[3,2-b]pyrrolo[1,2-d][1,4]oxazin-4-yl)thio)pyrazin-2-yl)-3-methyl-2-oxa-8-azaspiro[4.5]decan-4-amine]
2 | 3.9 | COCOC[C@H]1C[C@H]2COc3c(Sc4cnc(N5CCC6(CC5)Cc5ncccc5[C@H]6N)cn4)ccnc3N2C1 [Compound 46, (S)-1′-(5-(((6aS,8S)-8-((methoxymethoxy)methyl)-6a,7,8,9-tetrahydro-6H-pyrido[3,2-b]pyrrolo[1,2-d][1,4]oxazin-4-yl)thio)pyrazin-2-yl)-5,7-dihydrospiro[cyclopenta[b]pyridine-6,4′-piperidin]-5-amine]
3 | 8.4 | COCOC[C@H]1C[C@H]2COc3c(Sc4ncc(N5CCC6(CC5)Cc5ncccc5[C@H]6N)nc4N)ccnc3N2C1 [Compound 47, (S)-1′-(6-amino-5-(((6aS,8S)-8-((methoxymethoxy)methyl)-6a,7,8,9-tetrahydro-6H-pyrido[3,2-b]pyrrolo[1,2-d][1,4]oxazin-4-yl)thio)pyrazin-2-yl)-5,7-dihydrospiro[cyclopenta[b]pyridine-6,4′-piperidin]-5-amine]
4 | 3.3 | COCOC[C@H]1C[C@H]2COc3c(Sc4cnc(N5CCC6(CC5)Cc5ncccc5[C@H]6N)c(CO)n4)ccnc3N2C1 [Compound 48, (3-((S)-5-amino-5,7-dihydrospiro[cyclopenta[b]pyridine-6,4′-piperidin]-1′-yl)-6-(((6aS,8S)-8-((methoxymethoxy)methyl)-6a,7,8,9-tetrahydro-6H-pyrido[3,2-b]pyrrolo-[1,2-d][1,4]oxazin-4-yl)thio)pyrazin-2-yl)methanol]

More lines, now with the values behind:

Row | Compound | IC50 [nM]
5 | COC[C@H]1C[C@H]2COc3c(Sc4cnc(N5CCC6(CC5)CO[C@@H](C)[C@H]6N)cn4)ccnc3N2C1 [Compound 43, (3S,4S)-8-(5-(((6aS,8S)-8-(methoxymethyl)-6a,7,8,9-tetrahydro-6H-pyrido[3,2-b]pyrrolo[1,2-d][1,4]oxazin-4-yl)thio)pyrazin-2-yl)-3-methyl-2-oxa-8-azaspiro[4.5]decan-4-amine] | 4.5
6 | COCOC[C@H]1C[C@H]2COc3c(Sc4ncc(N5CCC6(CC5)CO[C@@H](C)[C@H]6N)nc4N)ccnc3N2C1 [Compound 44, (3S,4S)-8-(6-amino-5-(((6aS,8S)-8-((methoxymethoxy)methyl)-6a,7,8,9-tetrahydro-6H-pyrido[3,2-b]pyrrolo[1,2-d][1,4]oxazin-4-yl)thio)pyrazin-2-yl)-3-methyl-2-oxa-8-azaspiro[4.5]decan-4-amine] | 5.9
7 | COC[C@H]1C[C@H]2COc3c(Sc4ncc(N5CCC6(CC5)CO[C@@H](C)[C@H]6N)nc4N)ccnc3N2C1 [Compound 45, (3S,4S)-8-(6-amino-5-(((6aS,8S)-8-(methoxymethyl)-6a,7,8,9-tetrahydro-6H-pyrido[3,2-b]pyrrolo[1,2-d][1,4]oxazin-4-yl)thio)pyrazin-2-yl)-3-methyl-2-oxa-8-azaspiro[4.5]decan-4-amine] | 9.4
8 | COCOC[C@H]1C[C@H]2COc3c(Sc4nc(CO)c(N5CCC6(CC5)CO[C@@H](C)[C@H]6N)nc4C)ccnc3N2C1 [Compound 49, (3-((3S,4S)-4-amino-3-methyl-2-oxa-8-azaspiro[4.5]decan-8-yl)-6-(((6aS,8S)-8-((methoxymethoxy)methyl)-6a,7,8,9-tetrahydro-6H-pyrido[3,2-b]pyrrolo[1,2-d][1,4]oxazin-4-yl)thio)-5-methylpyrazin-2-yl)methanol] | 12
9 | COCOC[C@@H]1C[C@H]2COc3c(Sc4cnc(N5CCC6(CC5)CO[C@@H](C)[C@H]6N)c(CO)n4)ccnc3N2C1 [Compound 50, (3-((3S,4S)-4-amino-3-methyl-2-oxa-8-azaspiro[4.5]decan-8-yl)-6-(((6aS,8R)-8-((methoxymethoxy)methyl)-6a,7,8,9-tetrahydro-6H-pyrido[3,2-b]pyrrolo[1,2-d][1,4]oxazin-4-yl)thio)pyrazin-2-yl)methanol] | 3.5
10 | COCOC[C@H]1C[C@@H]2COc3c(Sc4cnc(N5CCC6(CC5)CO[C@@H](C)[C@H]6N)c(CO)n4)ccnc3N2C1 [Compound 51, (3-((3S,4S)-4-amino-3-methyl-2-oxa-8-azaspiro[4.5]decan-8-yl)-6-(((6aR,8S)-8-((methoxymethoxy)methyl)-6a,7,8,9-tetrahydro-6H-pyrido[3,2-b]pyrrolo[1,2-d][1,4]oxazin-4-yl)thio)pyrazin-2-yl)methanol] | 4.9
11 | COCOC[C@@H]1C[C@@H]2COc3c(Sc4cnc(N5CCC6(CC5)CO[C@@H](C)[C@H]6N)c(CO)n4)ccnc3N2C1 [Compound 52, (3-((3S,4S)-4-amino-3-methyl-2-oxa-8-azaspiro[4.5]decan-8-yl)-6-(((6aR,8R)-8-((methoxymethoxy)methyl)-6a,7,8,9-tetrahydro-6H-pyrido[3,2-b]pyrrolo[1,2-d][1,4]oxazin-4-yl)thio)pyrazin-2-yl)methanol] | 3.7
